Values belong to the compound of their own block, whether it stands above or below them. Calls of active or inactive are those of the source. The rule behind the calls is not given here.
Experiments:
[1] = target: T1, Gamma-aminobutyric acid receptor subunit alpha-4/beta-2/gamma-2 (Homo sapiens, UniProt P47870+P18507+P48169); assay: Agonist activity at recombinant human GABA-A alpha4beta2gamma2S receptor transiently expressed in human tsA201 cells at >= 100 uM incubated for 30 mins and measured up to 90 secs by FMP dye based FLIPR membrane potential blue assay; type: cell-based
[2] = target: T2, Gamma-aminobutyric acid receptor subunit rho-1 (Homo sapiens, UniProt P24046); assay: Antagonist activity at recombinant human GABA-A rho-1 receptor transiently expressed in human tsA201 cells incubated for 30 mins and measured up to 90 secs by FMP dye based FLIPR membrane potential blue assay; type: cell-based
[3] = target: T2, Gamma-aminobutyric acid receptor subunit rho-1; assay: Agonist activity at recombinant human GABA-A rho-1 receptor transiently expressed in human tsA201 cells at 300 uM incubated for 30 mins and measured up to 90 secs by FMP dye based FLIPR membrane potential blue assay; type: cell-based
[4] = Ionization constant, pKa2 of the compound at 1 mM by potentiometric titration assay; type: physicochemical
[5] = target: Gamma-aminobutyric acid receptor subunit alpha-4/beta-2/gamma-2 (Homo sapiens, UniProt P18507+P47870+P48169); assay: Agonist activity at recombinant human GABA-A alpha4beta2gamma2S receptor transiently expressed in human tsA201 cells incubated for 30 mins and measured up to 90 secs by FMP dye based FLIPR membrane potential blue assay; type: cell-based; conditions: read-out: EC50
[6] = target: T1, Gamma-aminobutyric acid receptor subunit alpha-4/beta-2/gamma-2; assay: Agonist activity at recombinant human GABA-A alpha4beta2gamma2S receptor transiently expressed in human tsA201 cells at >= 300 uM incubated for 30 mins and measured up to 90 secs by FMP dye based FLIPR membrane potential blue assay; type: cell-based
[7] = target: T3, GABA-A receptor; alpha-1/beta-2/gamma-2 (Homo sapiens) (UniProt P14867+P47870+P18507); assay: Agonist activity at recombinant human GABA-A alpha1beta2gamma2S receptor transiently expressed in human tsA201 cells at >= 1000 uM incubated for 30 mins and measured up to 90 secs by FMP dye based FLIPR membrane potential blue assay; type: cell-based
[8] = target: T3, GABA-A receptor; alpha-1/beta-2/gamma-2 (Homo sapiens); assay: Agonist activity at recombinant human GABA-A alpha1beta2gamma2S receptor transiently expressed in human tsA201 cells incubated for 30 mins and measured up to 90 secs by FMP dye based FLIPR membrane potential blue assay; type: cell-based
[9] = target: T1, Gamma-aminobutyric acid receptor subunit alpha-4/beta-2/gamma-2; assay: Agonist activity at recombinant human GABA-A alpha4beta2gamma2S receptor transiently expressed in human tsA201 cells at >= 1000 uM incubated for 30 mins and measured up to 90 secs by FMP dye based FLIPR membrane potential blue assay; type: cell-based
Homo sapiens [10] = species: Homo sapiens
[11] = target: T2, Gamma-aminobutyric acid receptor subunit rho-1; assay: Agonist activity at recombinant human GABA-A rho-1 receptor transiently expressed in human tsA201 cells at >= 100 uM incubated for 30 mins and measured up to 90 secs by FMP dye based FLIPR membrane potential blue assay; type: cell-based
[12] = target: T3, GABA-A receptor; alpha-1/beta-2/gamma-2 (Homo sapiens); assay: Agonist activity at recombinant human GABA-A alpha1beta2gamma2S receptor transiently expressed in human tsA201 cells at >= 300 uM incubated for 30 mins and measured up to 90 secs by FMP dye based FLIPR membrane potential blue assay; type: cell-based
Homo sapiens [13] = species: Homo sapiens; assay: Agonist activity at recombinant human GABA-A alpha3beta2gamma2S receptor transiently expressed in human tsA201 cells at >= 100 uM incubated for 30 mins and measured up to 90 secs by FMP dye based FLIPR membrane potential blue assay; type: cell-based
Homo sapiens [14] = species: Homo sapiens; assay: Agonist activity at recombinant human GABA-A alpha3beta2gamma2S receptor transiently expressed in human tsA201 cells at >= 300 uM incubated for 30 mins and measured up to 90 secs by FMP dye based FLIPR membrane potential blue assay; type: cell-based
Homo sapiens [15] = species: Homo sapiens; assay: Selectivity ratio of IC50 for human GAT2 expressed in Flp-In CHO cells to IC50 for human BGT1 expressed in Flp-In CHO cells; type: cell-based
Homo sapiens [16] = species: Homo sapiens; assay: Selectivity ratio of IC50 for human GAT1 expressed in Flp-In CHO cells to IC50 for human BGT1 expressed in Flp-In CHO cells; type: cell-based
Homo sapiens [17] = species: Homo sapiens; assay: Selectivity ratio of IC50 for human GAT3 expressed in Flp-In CHO cells to IC50 for human BGT1 expressed in Flp-In CHO cells; type: cell-based

T2 sequence (P24046 whole entry): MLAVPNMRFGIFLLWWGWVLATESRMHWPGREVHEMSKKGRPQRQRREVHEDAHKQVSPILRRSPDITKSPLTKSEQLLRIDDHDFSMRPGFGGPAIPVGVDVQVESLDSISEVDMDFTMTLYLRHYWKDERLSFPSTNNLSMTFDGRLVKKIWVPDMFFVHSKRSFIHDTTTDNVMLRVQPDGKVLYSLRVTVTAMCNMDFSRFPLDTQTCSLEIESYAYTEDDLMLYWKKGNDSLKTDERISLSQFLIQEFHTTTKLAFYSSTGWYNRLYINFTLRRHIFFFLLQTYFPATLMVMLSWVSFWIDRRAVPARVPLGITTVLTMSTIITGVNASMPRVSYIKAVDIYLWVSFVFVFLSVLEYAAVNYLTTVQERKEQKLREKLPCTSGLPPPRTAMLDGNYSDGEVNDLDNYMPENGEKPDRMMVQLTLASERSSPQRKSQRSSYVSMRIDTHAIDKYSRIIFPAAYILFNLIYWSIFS
Sequence of Gamma-aminobutyric acid receptor subunit alpha-4/beta-2/gamma-2 (Homo sapiens, UniProt P18507+P47870+P48169) (P47870 whole entry): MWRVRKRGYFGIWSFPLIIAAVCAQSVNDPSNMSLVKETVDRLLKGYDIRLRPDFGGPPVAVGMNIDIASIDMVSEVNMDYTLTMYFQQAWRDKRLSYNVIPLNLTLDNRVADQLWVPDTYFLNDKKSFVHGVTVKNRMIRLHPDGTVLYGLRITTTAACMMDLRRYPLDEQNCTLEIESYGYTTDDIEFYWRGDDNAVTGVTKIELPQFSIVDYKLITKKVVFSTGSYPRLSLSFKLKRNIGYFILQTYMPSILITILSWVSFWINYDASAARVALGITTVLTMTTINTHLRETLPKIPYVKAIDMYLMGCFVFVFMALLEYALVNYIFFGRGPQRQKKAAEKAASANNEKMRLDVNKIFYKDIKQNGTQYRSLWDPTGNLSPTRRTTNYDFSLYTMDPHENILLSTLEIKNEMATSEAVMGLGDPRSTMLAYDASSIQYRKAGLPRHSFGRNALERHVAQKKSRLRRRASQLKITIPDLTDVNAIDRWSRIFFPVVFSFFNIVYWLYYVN
Sequence of Gamma-aminobutyric acid receptor subunit alpha-4/beta-2/gamma-2 (Homo sapiens, UniProt P18507+P47870+P48169) (P18507 whole entry): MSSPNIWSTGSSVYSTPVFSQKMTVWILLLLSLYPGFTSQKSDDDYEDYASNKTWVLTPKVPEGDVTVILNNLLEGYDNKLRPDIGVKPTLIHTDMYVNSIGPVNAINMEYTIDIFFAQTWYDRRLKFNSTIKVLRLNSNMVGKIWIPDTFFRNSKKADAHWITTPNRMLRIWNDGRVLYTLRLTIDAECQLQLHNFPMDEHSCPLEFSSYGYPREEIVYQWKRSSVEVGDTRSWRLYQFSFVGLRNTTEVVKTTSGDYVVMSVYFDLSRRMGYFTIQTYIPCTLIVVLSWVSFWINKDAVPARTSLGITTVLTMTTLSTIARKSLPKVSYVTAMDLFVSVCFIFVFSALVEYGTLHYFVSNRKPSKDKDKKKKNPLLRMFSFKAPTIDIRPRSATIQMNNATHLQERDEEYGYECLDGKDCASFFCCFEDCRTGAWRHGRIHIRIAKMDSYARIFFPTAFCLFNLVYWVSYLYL
Sequence of Gamma-aminobutyric acid receptor subunit alpha-4/beta-2/gamma-2 (Homo sapiens, UniProt P18507+P47870+P48169) (P48169 whole entry): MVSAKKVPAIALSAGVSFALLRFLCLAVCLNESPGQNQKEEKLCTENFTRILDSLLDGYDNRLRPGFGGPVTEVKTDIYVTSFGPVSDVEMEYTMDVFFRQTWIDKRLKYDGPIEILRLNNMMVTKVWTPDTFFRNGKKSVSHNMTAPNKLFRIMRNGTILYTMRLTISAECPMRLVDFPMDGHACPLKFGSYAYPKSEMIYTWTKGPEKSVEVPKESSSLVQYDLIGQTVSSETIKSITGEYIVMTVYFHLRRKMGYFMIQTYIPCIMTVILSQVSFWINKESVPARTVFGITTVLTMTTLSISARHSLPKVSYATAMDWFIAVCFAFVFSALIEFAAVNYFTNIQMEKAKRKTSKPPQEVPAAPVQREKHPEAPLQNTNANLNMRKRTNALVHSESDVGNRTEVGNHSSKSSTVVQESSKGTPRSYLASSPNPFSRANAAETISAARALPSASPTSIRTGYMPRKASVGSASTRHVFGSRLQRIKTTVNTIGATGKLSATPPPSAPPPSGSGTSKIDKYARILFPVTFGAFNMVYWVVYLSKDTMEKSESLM

Structure (SMILES): C[C@@H](C(=O)O)[C@H]1CSC(N)=N1 (relative stereo)
Activity [1]: Active | IC50 [2]: 300 µM | Activity [3]: inactive

Structure (SMILES): CC(C(=O)O)C1CSC(N)=N1 (stereo in doubt; l-10a)
EC50 [5]: 26 µM

Structure (SMILES): C[C@@H](C(=O)O)[C@@H]1CSC(N)=N1 (relative stereo)
Activity [9]: Active

Structure (SMILES): O=C(O)C[C@H]1CCNC1
EC50 [5]: 8.1 µM

Structure (SMILES): O=C(O)C[C@@H]1CCNC1
pEC50 (Homo sapiens [10]): inactive | Activity [6]: Active | Activity [11]: Active | pEC50 [8]: inactive | Activity [12]: Active | Activity (Homo sapiens [13]): Active

Structure (SMILES): C[C@H]1SC(N)=N[C@@H]1CC(=O)O (relative stereo)
pEC50 (Homo sapiens [10]): inactive | Activity [6]: Active | Activity [11]: Active | pEC50 [8]: inactive | Activity (Homo sapiens [14]): Active | Activity [12]: Active

Structure (SMILES): NC1=NC(CC(=O)O)CN1 (configuration not stated)
Ratio IC50 (Homo sapiens [15]): 14 to 44 | pKa at 1000 µM [4]: 10.1 | Ratio IC50 (Homo sapiens [16]): 14 to 44 | Ratio IC50 (Homo sapiens [17]): 14 to 44 | EC50 [5]: 14 µM

The remaining lines, values ahead:

pKa at 1000 µM [4]: 8.62 | EC50 [5]: 1.3 µM
Structure (SMILES): NC1=NC(CC(=O)O)CS1 (configuration not stated)

IC50 [2]: 100 µM | Activity [6]: Active | Activity [7]: Active | pEC50 [8]: inactive | Activity [3]: inactive
Structure (SMILES): C[C@@H]1SC(N)=N[C@@H]1CC(=O)O (relative stereo)

pKa at 1000 µM [4]: 9.63 | EC50 [5]: 7.9 µM
Structure (SMILES): O=C(O)CC1CNC=N1 (configuration not stated)

From ChEMBL document CHEMBL4396887, “Five-Membered N-Heterocyclic Scaffolds as Novel Amino Bioisosteres at γ-Aminobutyric Acid (GABA) Type A Receptors and GABA Transporters” (J Med Chem, 2019)
